Reference: patent publication US20260092179A1, “GENETICALLY MODIFIED HOST CELLS PRODUCING VIOLACEIN, ANALOGUES, AND DERIVATIVES THEREOF” (OCTARINE BIO APS, priority 2022, published 2026)

Columns and labels:
[1] = Artificial light stability of dyed fabrics (colour fastness, ΔE); type: physicochemical; conditions: for ΔE: before vs after LED lamp, room temperature, 16 h
Experimental: (§1) In order to assess the stability and colour fastness of violacein and violacein derivatives dyed onto fabrics, dyed fabrics were subjected to a number of conditions. Fabrics were dyed according to Example 18 and colour coordinates and colour change before and after exposure to a given condition were determined as described in Example 18. To measure temperature stability, fabrics were incubated in an oven set to 80° c. for 4 h. To measure stability under acid and alkaline conditions, fabrics were fully submerged in water solutions set to pH 8 with NaOH and pH 5 with HCl and incubated at room temperature for 30 minutes. Fabrics were then incubated at 37° c. for 4 h. To measure stability during laundering, fabrics were washed at 30° c. under the “mix” setting of a Siemens IQ300 washing machine, then dried in a Siemens IQ300 dryer until dry. To measure artificial light stability, fabrics were placed under an LED lamp at room temperature for 16 h. To measure UV light stability, fabrics were placed under a UV lamp at room temperature for 1 h.

[2] = UV absorption capability (absorbance maxima, UV-A, UV-B, UV-C absorption) by HPLC; type: physicochemical; conditions: for Total UV absorption UV C (245 nm): AUC of HPLC peak at 245 nm per mM; for Total UV absorption UV B (305 nm): AUC of HPLC peak at 305 nm per mM; for Total UV absorption UV A (360 nm): AUC of HPLC peak at 360 nm per mM
Experimental: The software Agilent Openlab CDS Chemstation Rev.
Violacein is reported as being a potent UV absorbent able to effectively absorb UV radiation, however, much less is known about the other violacein derivatives. To investigate the potential of using violacein and violacein derivatives as UV inhibitors and to potentially impart UV protection to fabrics, the UV absorption spectra of each compound was analyzed by HPLC and the total absorption capability at each of the most relevant UV wavelengths quantified.
For the quantification of UV absorption capacity of the compound of interest, a chromatographic separation on the F5 column and a gradient of water/acetonitrile containing 0.05% formic acid was run according to Example 5). […] The compounds were quantified based on the signal at 230 nm, using calibration curves of authentic analytical standards.
The UV absorption capacity is represented in mAU.min/mM. UV-A, UV-B and UV-C represent the most relevant regions where UV protection is required. UV-C is the most harmful type of UV radiation and can be generated by inorganic sources. UV-B radiation predominantly comes from the suns rays and is responsible for sun burn. UV-A radiation is also derived predominantly from the suns rays, and while UV-A radiation is less harmful than UV-B or UV-C but is much more prevalent.

[3] = Stability during laundering of dyed fabrics (colour fastness, ΔE); type: physicochemical; conditions: washed at 30° c.
Experimental: as §1

[4] = Free radical scavenging ability of dyed Nylon 6,6 fabric (DPPH); type: biochemical; conditions: dyed Nylon 6,6 fabric strip; for OD517: 1 h in the dark in 5×10^−5 M DPPH in 100% ethanol; for Scavenging ability %: 1 h in the dark in 5×10^−5 M DPPH, vs undyed control
Experimental: Violacein is reported as being a potent antioxidant able to effectively scavenge free radicals. […] To test this, 1.5×1.5 cm dyed Nylon 6,6 fabric strips were incubated in the dark at room temperature for 1 h in 5 mL of a 5×10^−5 M DPPH free radical solution in 100% ethanol. Undyed Nylon 6,6 fabric strips were included as a negative control. After 1 h absorbance was measured at 517 nm and % scavenging ability calculated as above.

[5] = Acrylic, after test (LED lamp, room temperature, 16 h)
[6] = Bleached cotton, after test (LED lamp, room temperature, 16 h)
[7] = Diacetate, after test (LED lamp, room temperature, 16 h)
[8] = Nylon 6,6, after test (LED lamp, room temperature, 16 h)
[9] = Polyester, after test (LED lamp, room temperature, 16 h)
[10] = Wool, after test (LED lamp, room temperature, 16 h)
[11] = Acrylic, before and after the stability test
[12] = Bleached cotton, before and after the stability test
[13] = Diacetate, before and after the stability test
[14] = Nylon 6,6, before and after the stability test
[15] = Polyester, before and after the stability test
[16] = Wool, before and after the stability test

O=C1NC(c2c[nH]c3ccccc23)=C/C1=C1\C(=O)Nc2ccccc21 [deoxyviolacein]
L [1, 5]: 64.84
a [1, 5]: 0.76
b [1, 5]: 2.12
L ([1]; Acrylic, before test): 60.52
a ([1]; Acrylic, before test): 1.59
b ([1]; Acrylic, before test): −2.77
ΔE ([1]; Acrylic): 6.58
L [1, 6]: 62.47
a [1, 6]: 2
b [1, 6]: −6.81
L ([1]; Bleached cotton, before test): 60.49
a ([1]; Bleached cotton, before test): 0.97
b ([1]; Bleached cotton, before test): −7.49
ΔE ([1]; Bleached cotton): 2.33
L [1, 7]: 49.82
a [1, 7]: 9.13
b [1, 7]: −9.9
L ([1]; Diacetate, before test): 47.05
a ([1]; Diacetate, before test): 13.99
b ([1]; Diacetate, before test): −17.37
ΔE ([1]; Diacetate): 9.33
L [1, 8]: 46.23
a [1, 8]: 5.57
b [1, 8]: −18.4
L ([1]; Nylon 6,6, before test): 43.65
a ([1]; Nylon 6,6, before test): 5.57
b ([1]; Nylon 6,6, before test): −20.95
ΔE ([1]; Nylon 6,6): 3.63
L [1, 9]: 70.32
a [1, 9]: 0.28
b [1, 9]: 2.09
L ([1]; Polyester, before test): 64.39
a ([1]; Polyester, before test): 1.76
b ([1]; Polyester, before test): −4.83
ΔE ([1]; Polyester): 9.23
L [1, 10]: 69.63
a [1, 10]: 0.44
b [1, 10]: 3.2
L ([1]; Wool, before test): 64.28
a ([1]; Wool, before test): −0.4
b ([1]; Wool, before test): −0.37
ΔE ([1]; Wool): 6.49
UV absorption capability in the UV-C region ([2]; 245 nm): particularly high
Total UV absorption UV C (245 nm) [2]: 9251.6 (mAU · min)/mM
Total UV absorption UV B (305 nm) [2]: 0 (mAU · min)/mM
Total UV absorption UV A (360 nm) [2]: 702.8 (mAU · min)/mM
L ([3]; Acrylic, After test): 69.42
a ([3]; Acrylic, After test): −1.13
b ([3]; Acrylic, After test): 0.45
L ([3]; Acrylic, Before test): 60.9
a ([3]; Acrylic, Before test): 0.39
b ([3]; Acrylic, Before test): −2.66
ΔE [3, 11]: 9.20
L ([3]; Bleached cotton, After test): 69.57
a ([3]; Bleached cotton, After test): 0.39
b ([3]; Bleached cotton, After test): −5.93
L ([3]; Bleached cotton, Before test): 61.14
a ([3]; Bleached cotton, Before test): 0.73
b ([3]; Bleached cotton, Before test): −8.03
ΔE [3, 12]: 8.69
L ([3]; Diacetate, After test): 54.82
a ([3]; Diacetate, After test): 10.32
b ([3]; Diacetate, After test): −14.22
L ([3]; Diacetate, Before test): 50.89
a ([3]; Diacetate, Before test): 9.08
b ([3]; Diacetate, Before test): −15.27
ΔE [3, 13]: 4.25
L ([3]; Nylon 6,6, After test): 47.79
a ([3]; Nylon 6,6, After test): 6.03
b ([3]; Nylon 6,6, After test): −20.63
L ([3]; Nylon 6,6, Before test): 44.46
a ([3]; Nylon 6,6, Before test): 6.19
b ([3]; Nylon 6,6, Before test): −22.02
ΔE [3, 14]: 3.61
L ([3]; Polyester, After test): 74.17
a ([3]; Polyester, After test): −0.99
b ([3]; Polyester, After test): −0.58
L ([3]; Polyester, Before test): 64.92
a ([3]; Polyester, Before test): 1.08
b ([3]; Polyester, Before test): −5.1
ΔE [3, 15]: 10.50
L ([3]; Wool, After test): 72.9
a ([3]; Wool, After test): −0.9
b ([3]; Wool, After test): 3.2
L ([3]; Wool, Before test): 63.37
a ([3]; Wool, Before test): −0.25
b ([3]; Wool, Before test): −1.82
ΔE [3, 16]: 10.79
OD517 [4]: 1.43
Scavenging ability % [4]: 37.05%

O=C1N=C(c2c[nH]c3ccc(O)cc23)C=C1c1c[nH]c2ccccc12 [proviolacein]
L [1, 5]: 58.47
a [1, 5]: −0.05
b [1, 5]: 2.76
L ([1]; Acrylic, before test): 56.17
a ([1]; Acrylic, before test): −0.68
b ([1]; Acrylic, before test): 3.21
ΔE ([1]; Acrylic): 2.43
L [1, 6]: 62.69
a [1, 6]: 3.04
b [1, 6]: 3.55
L ([1]; Bleached cotton, before test): 58.83
a ([1]; Bleached cotton, before test): −0.52
b ([1]; Bleached cotton, before test): 4.04
ΔE ([1]; Bleached cotton): 5.27
L [1, 7]: 63.43
a [1, 7]: 4.56
b [1, 7]: 7.02
L ([1]; Diacetate, before test): 56.45
a ([1]; Diacetate, before test): 3.46
b ([1]; Diacetate, before test): 5.75
ΔE ([1]; Diacetate): 7.18
L [1, 8]: 51.07
a [1, 8]: −0.68
b [1, 8]: −2.49
L ([1]; Nylon 6,6, before test): 47.03
a ([1]; Nylon 6,6, before test): −1.98
b ([1]; Nylon 6,6, before test): −2.52
ΔE ([1]; Nylon 6,6): 4.24
L [1, 9]: 65.01
a [1, 9]: −0.35
b [1, 9]: 1.74
L ([1]; Polyester, before test): 59.49
a ([1]; Polyester, before test): −1.38
b ([1]; Polyester, before test): 2.13
ΔE ([1]; Polyester): 5.63
L [1, 10]: 67.51
a [1, 10]: −0.15
b [1, 10]: 6.46
L ([1]; Wool, before test): 65.25
a ([1]; Wool, before test): −0.55
b ([1]; Wool, before test): 5.71
ΔE ([1]; Wool): 2.41
UV absorption capability in the UV-B region ([2]; 305 nm): particularly high
Total UV absorption UV C (245 nm) [2]: 3142.9 (mAU · min)/mM
Total UV absorption UV B (305 nm) [2]: 4097.7 (mAU · min)/mM
Total UV absorption UV A (360 nm) [2]: 0 (mAU · min)/mM
L ([3]; Acrylic, After test): 67.87
a ([3]; Acrylic, After test): −1.12
b ([3]; Acrylic, After test): 2.23
L ([3]; Acrylic, Before test): 58.81
a ([3]; Acrylic, Before test): 0.01
b ([3]; Acrylic, Before test): 1.72
ΔE [3, 11]: 9.14
L ([3]; Bleached cotton, After test): 73
a ([3]; Bleached cotton, After test): 0.55
b ([3]; Bleached cotton, After test): 1.68
L ([3]; Bleached cotton, Before test): 65.1
a ([3]; Bleached cotton, Before test): 1.34
b ([3]; Bleached cotton, Before test): 3.23
ΔE [3, 12]: 8.09
L ([3]; Diacetate, After test): 68.23
a ([3]; Diacetate, After test): 3.76
b ([3]; Diacetate, After test): 5.07
L ([3]; Diacetate, Before test): 62.86
a ([3]; Diacetate, Before test): 4.96
b ([3]; Diacetate, Before test): 5.09
ΔE [3, 13]: 5.50
L ([3]; Nylon 6,6, After test): 56.92
a ([3]; Nylon 6,6, After test): −1.51
b ([3]; Nylon 6,6, After test): −3.83
L ([3]; Nylon 6,6, Before test): 50.65
a ([3]; Nylon 6,6, Before test): −1.57
b ([3]; Nylon 6,6, Before test): −2.84
ΔE [3, 14]: 6.35
L ([3]; Polyester, After test): 72.82
a ([3]; Polyester, After test): −0.46
b ([3]; Polyester, After test): 0.54
L ([3]; Polyester, Before test): 65.21
a ([3]; Polyester, Before test): −1.18
b ([3]; Polyester, Before test): 1.47
ΔE [3, 15]: 7.70
L ([3]; Wool, After test): 72.54
a ([3]; Wool, After test): −1.14
b ([3]; Wool, After test): 5.37
L ([3]; Wool, Before test): 64.87
a ([3]; Wool, Before test): 0.09
b ([3]; Wool, Before test): 5
ΔE [3, 16]: 7.78
OD517 [4]: 1.88
Scavenging ability % [4]: 17.27%
